{"source": "paper PMC7850479", "about": "“A drug repurposing screen identifies hepatitis C antivirals as inhibitors of the SARS-CoV2 main protease” (PLoS ONE, 2021)", "key": {"[1]": {"target": "T1, SARS-CoV-2 Mpro (Severe acute respiratory syndrome coronavirus 2, UniProt P0DTD1)", "assay": "Dose validation assay (10-point dose-response), fluorescent Mpro protease assay with Ac-Abu-Tle-Leu-Gln-AFC", "assay_type": "biochemical", "conditions": "for IC50 / Hill Slope: 80nM Mpro, 32μM Ac-Abu-Tle-Leu-Gln-AFC, n = 3, 4-parameter nonlinear regression; for IC50: 10 concentrations 150 μM to 7.6 nM"}, "[2]": {"target": "T1, SARS-CoV-2 Mpro", "assay_type": "biochemical"}, "[3]": {"tested_on": "NS3 protease variants", "conditions": "HCV NS3 single amino acid mutations; cited from earlier work"}, "[4]": {"tested_on": "HCV protease", "conditions": "cited from earlier work"}, "[5]": {"tested_on": "SARS-CoV-2", "conditions": "cellular model of viral replication; read-out: EC50, SARS-CoV-2 antiviral activity; cited from earlier work"}, "[6]": {"tested_on": "Covid-19 patients", "design": "method as in PMID 32445440", "conditions": "cohort of 1062 patients, placebo control 15 days; cited from earlier work"}, "[7]": {"conditions": "Z-score in the protease inhibition assay, ΔRFU at 10 minutes, 50 μM compound, substrate not stated"}}, "note": "Read-outs that look alike come from different tables or passages of the source. Residues, ends and D or L forms follow the SMILES beside them."}
{"compound": "O=c1c2ccccc2[se]n1-c1ccccc1", "note": "[Ebselen]", "values": [{"measurement": "dose response against Mpro cleavage of substrate Ac-Abu-Tle-Leu-Gln-AFC", "setting": "[1]; result in words, S1 Fig", "result": "failed to show a significant dose response"}]}
{"compound": "CCOC(=O)c1ccc(N2NC(=O)/C(=C/c3ccc([N+](=O)[O-])o3)C2=O)cc1", "note": "[PYR-41]", "values": [{"measurement": "IC50", "setting": "[1]", "result": 17.4, "unit": "µM"}, {"measurement": "Hill Slope", "setting": "[1]", "result": 0.9933}]}
{"compound": "C[C@H](NC(=O)[C@@H](Cc1c[nH]c2ccccc12)NC(=O)[C@@H](N)Cc1cnc[nH]1)C(=O)N[C@@H](Cc1c[nH]c2ccccc12)C(=O)N[C@H](Cc1ccccc1)C(=O)N[C@@H](CCCCN)C(N)=O", "note": "[U-75799E] (HELM PEPTIDE1{H.[dW].A.W.[dF].K.[am]}$$$$V2.0)", "values": [{"measurement": "Z10", "setting": "[2]", "result": 1.044}]}
{"compound": "OC[C@H]1O[C@H]([S-])[C@H](O)[C@@H](O)[C@@H]1O.[Au+]", "note": "[aurothioglucose]", "values": [{"measurement": "IC50", "setting": "[1]", "result": 13.3, "unit": "µM"}, {"measurement": "Hill Slope", "setting": "[1]", "result": 1.496}]}
{"compound": "CC(C)(C)NC(=O)N[C@H](C(=O)N1C[C@H]2[C@@H]([C@H]1C(=O)NC(CC1CCC1)C(=O)C(N)=O)C2(C)C)C(C)(C)C", "note": "(stereo partly shown) [boceprevir]", "values": [{"measurement": "Hill Slope", "setting": "[1]", "result": 0.4123}, {"measurement": "reduction in potency against enzymatic activity, SARS-CoV-2 Mpro compared to HCV protease", "setting": "[1]; ~1 μM for Mpro versus below 90 nM for HCV protease", "result": 10, "unit": "fold"}, {"measurement": "reduction in activity caused by single amino acid mutations", "setting": "[3]", "result": "up to 120 fold"}, {"measurement": "IC50", "setting": "[4]", "result": "< 0.09", "unit": "µM"}, {"measurement": "EC50", "setting": "[5]", "result": "1.95 ± 1.62", "unit": "µM"}]}
{"compound": "CCCC[C@@H](C=O)NC(=O)[C@H](CC(C)C)NC(=O)OCc1ccccc1", "note": "[calpeptin]", "values": [{"measurement": "Hill Slope", "setting": "[1]", "result": 1.009}]}
{"compound": "COc1ccc2c(O[C@@H]3C[C@H]4C(=O)N[C@]5(C(=O)O)C[C@H]5/C=C\\CCCCC[C@H](NC(=O)OC5CCCC5)C(=O)N4C3)cc(-c3csc(NC(C)C)n3)nc2c1", "note": "[ciluprevir]", "values": [{"measurement": "IC50", "setting": "[1]", "result": 20.8, "unit": "µM"}, {"measurement": "Hill Slope", "setting": "[1]", "result": 1.133}]}
{"compound": "CC(=O)N(CC(O)CN(C(C)=O)c1c(I)c(C(=O)NCC(O)CO)c(I)c(C(=O)NCC(O)CO)c1I)c1c(I)c(C(=O)NCC(O)CO)c(I)c(C(=O)NCC(O)CO)c1I", "note": "(stereo not shown) [iodixanol]", "values": [{"measurement": "Z10", "setting": "[2]; [7]", "result": -0.9551}]}
{"compound": "CCCC[C@H](NC(=O)[C@@H]1[C@@H]2[C@H](CN1C(=O)[C@@H](NC(=O)NC1(CS(=O)(=O)C(C)(C)C)CCCCC1)C(C)(C)C)C2(C)C)C(=O)C(=O)NC1CC1", "note": "[narlaprevir]", "values": [{"measurement": "Hill Slope", "setting": "[1]", "result": 0.9106}]}
{"compound": "CCC(CC)COC(=O)[C@H](C)N[P@](=O)(OC[C@H]1O[C@@](C#N)(c2ccc3c(N)ncnn23)[C@H](O)[C@@H]1O)Oc1ccccc1", "note": "[remdesivir]", "values": [{"measurement": "period of recovery", "setting": "[6]", "result": 10, "unit": "days"}]}
{"compound": "CCC[C@H](NC(=O)[C@@H]1[C@H]2CCC[C@H]2CN1C(=O)[C@@H](NC(=O)[C@@H](NC(=O)c1cnccn1)C1CCCCC1)C(C)(C)C)C(=O)C(=O)NC1CC1", "note": "[telaprevir]", "values": [{"measurement": "Hill Slope", "setting": "[1]", "result": 1.062}]}
{"compound": "dalargin", "values": [{"measurement": "Z10", "setting": "[2]; [7]", "result": -1.032}]}
{"compound": "desmopressin-acetate", "values": [{"measurement": "Z10", "setting": "[2]; [7]", "result": -0.4942}]}
{"compound": "hemin", "values": [{"measurement": "IC50", "setting": "[1]", "result": 9.68, "unit": "µM"}, {"measurement": "Hill Slope", "setting": "[1]", "result": 1.354}]}
